Test system: 435261-313-R-J1-PDC complex spheroid viability
Test: Anticancer human tumor 435261-313-R-J1-PDC patient-derived colon adenocarcinoma cell line growth inhibition [GQUAD]
Details: for IC50: curve of first compound; for viability, T/C: stronger effect = lower value
Outline: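 Viability of tumor cells grown as complex spheroids with endothelial and stromal cells, exposed to drug combinations. Top concentration at or near clinical Cmax (else 10 microM), diluted in half-log increments.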

[1] = second compound 0.0316 µM, first compound 0.0316 µM
[2] = second compound 0.0316 µM, first compound 0.1 µM
[3] = second compound 0.0316 µM, first compound 0.316 µM
[4] = second compound 0.0316 µM, first compound 1 µM
[5] = second compound 0.0316 µM, first compound 3.16 µM
[6] = second compound 0.0316 µM, first compound 10 µM
[7] = second compound 0.1 µM, first compound 0.0316 µM
[8] = second compound 0.1 µM, first compound 0.1 µM
[9] = second compound 0.1 µM, first compound 0.316 µM
[10] = second compound 0.1 µM, first compound 1 µM
[11] = second compound 0.1 µM, first compound 3.16 µM
[12] = second compound 0.1 µM, first compound 10 µM
[13] = second compound 0.316 µM, first compound 0.0316 µM
[14] = second compound 0.316 µM, first compound 0.1 µM
[15] = second compound 0.316 µM, first compound 0.316 µM
[16] = second compound 0.316 µM, first compound 1 µM
[17] = second compound 0.316 µM, first compound 3.16 µM
[18] = second compound 0.316 µM, first compound 10 µM
[19] = second compound 1 µM, first compound 0.0316 µM
[20] = second compound 1 µM, first compound 0.1 µM
[21] = second compound 1 µM, first compound 0.316 µM
[22] = second compound 1 µM, first compound 1 µM
[23] = second compound 1 µM, first compound 3.16 µM
[24] = second compound 1 µM, first compound 10 µM
[25] = second compound 3.16 µM, first compound 0.0316 µM
[26] = second compound 3.16 µM, first compound 0.1 µM
[27] = second compound 3.16 µM, first compound 0.316 µM
[28] = second compound 3.16 µM, first compound 1 µM
[29] = second compound 3.16 µM, first compound 3.16 µM
[30] = second compound 3.16 µM, first compound 10 µM
[31] = second compound 10 µM, first compound 0.0316 µM
[32] = second compound 10 µM, first compound 0.1 µM
[33] = second compound 10 µM, first compound 0.316 µM
[34] = second compound 10 µM, first compound 1 µM
[35] = second compound 10 µM, first compound 3.16 µM
[36] = second compound 10 µM, first compound 10 µM
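Note: spheroids exposed to the agents for seven days before readout.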
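Throughout, for viability, T/C: percent of vehicle control viability with DMSO wells as 100%.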

SMILES: CC1COCCN1c1cc(-c2ccnn2C)c2ccnc(-c3ccn[nH]3)c2n1 (stereo not drawn) + Cc1cnc(CNC(=O)c2c(=O)c3ccc(N4CCCN(C)CC4)nc3n3c2sc2ccccc23)cn1
- IC50 (second compound 0.0316 µM): 0.295 µM
- IC50 (second compound 0.1 µM): 0.425 µM
- IC50 (second compound 0.316 µM): 0.318 µM
- IC50 (second compound 1 µM): < 0.0316 µM
- IC50 (second compound 3.16 µM): < 0.0316 µM
- IC50 (second compound 10 µM): < 0.0316 µM
- viability, T/C [1]: 72.1%
- viability, T/C [2]: 54.9%
- viability, T/C [3]: 54.7%
- viability, T/C [4]: 35.4%
- viability, T/C [5]: 36.2%
- viability, T/C [6]: 23.9%
- viability, T/C [7]: 61.8%
- viability, T/C [8]: 59.4%
- viability, T/C [9]: 52.4%
- viability, T/C [10]: 42.2%
- viability, T/C [11]: 30.6%
- viability, T/C [12]: 21.3%
- viability, T/C [13]: 51.8%
- viability, T/C [14]: 57.6%
- viability, T/C [15]: 50.5%
- viability, T/C [16]: 37.9%
- viability, T/C [17]: 26.5%
- viability, T/C [18]: 15.1%
- viability, T/C [19]: 36.5%
- viability, T/C [20]: 41.9%
- viability, T/C [21]: 34.6%
- viability, T/C [22]: 26.3%
- viability, T/C [23]: 13.4%
- viability, T/C [24]: 9.95%
- viability, T/C [25]: 22.4%
- viability, T/C [26]: 21.2%
- viability, T/C [27]: 11.5%
- viability, T/C [28]: 4.04%
- viability, T/C [29]: 3.7%
- viability, T/C [30]: 2.53%
- viability, T/C [31]: 0.11%
- viability, T/C [32]: 0.14%
- viability, T/C [33]: 0.18%
- viability, T/C [34]: 0.15%
- viability, T/C [35]: 0.16%
- viability, T/C [36]: 0.15%

SMILES: O=c1[nH]cc(F)c(=O)[nH]1 + Cc1cnc(CNC(=O)c2c(=O)c3ccc(N4CCCN(C)CC4)nc3n3c2sc2ccccc23)cn1
- IC50 (second compound 0.0316 µM): > 10 µM
- IC50 (second compound 0.1 µM): > 10 µM
- IC50 (second compound 0.316 µM): > 10 µM
- IC50 (second compound 1 µM): < 0.0316 µM
- IC50 (second compound 3.16 µM): < 0.0316 µM
- IC50 (second compound 10 µM): < 0.0316 µM
- viability, T/C [1]: 85.2%
- viability, T/C [2]: 68.1%
- viability, T/C [3]: 76.1%
- viability, T/C [4]: 67.4%
- viability, T/C [5]: 81.4%
- viability, T/C [6]: 86.7%
- viability, T/C [7]: 68.8%
- viability, T/C [8]: 64%
- viability, T/C [9]: 56.1%
- viability, T/C [10]: 65.7%
- viability, T/C [11]: 81.9%
- viability, T/C [12]: 61.1%
- viability, T/C [13]: 57.3%
- viability, T/C [14]: 59.5%
- viability, T/C [15]: 56.7%
- viability, T/C [16]: 56%
- viability, T/C [17]: 67%
- viability, T/C [18]: 60.6%
- viability, T/C [19]: 41.5%
- viability, T/C [20]: 45.9%
- viability, T/C [21]: 47.6%
- viability, T/C [22]: 47%
- viability, T/C [23]: 55.1%
- viability, T/C [24]: 40.2%
- viability, T/C [25]: 20.3%
- viability, T/C [26]: 19.4%
- viability, T/C [27]: 17.6%
- viability, T/C [28]: 24.2%
- viability, T/C [29]: 18.9%
- viability, T/C [30]: 23.6%
- viability, T/C [31]: 0.16%
- viability, T/C [32]: 0.18%
- viability, T/C [33]: 0.23%
- viability, T/C [34]: 0.21%
- viability, T/C [35]: 0.23%
- viability, T/C [36]: 0.21%

SMILES: Cc1cccc(N(C)C(=O)C2C(O)CCN2c2nc(C)cc(C(F)(F)F)c2C#N)c1 (stereo not drawn) + Cc1cnc(CNC(=O)c2c(=O)c3ccc(N4CCCN(C)CC4)nc3n3c2sc2ccccc23)cn1
- IC50 (second compound 0.0316 µM): > 10 µM
- IC50 (second compound 0.1 µM): > 10 µM
- IC50 (second compound 0.316 µM): > 10 µM
- IC50 (second compound 1 µM): < 0.0316 µM
- IC50 (second compound 3.16 µM): < 0.0316 µM
- IC50 (second compound 10 µM): < 0.0316 µM
- viability, T/C [1]: 72.9%
- viability, T/C [2]: 76.9%
- viability, T/C [3]: 73.3%
- viability, T/C [4]: 63.7%
- viability, T/C [5]: 75.8%
- viability, T/C [6]: 81.6%
- viability, T/C [7]: 59.2%
- viability, T/C [8]: 66%
- viability, T/C [9]: 52.2%
- viability, T/C [10]: 56.3%
- viability, T/C [11]: 61.5%
- viability, T/C [12]: 62.3%
- viability, T/C [13]: 49.1%
- viability, T/C [14]: 52.5%
- viability, T/C [15]: 65.3%
- viability, T/C [16]: 51.7%
- viability, T/C [17]: 51.1%
- viability, T/C [18]: 53%
- viability, T/C [19]: 42%
- viability, T/C [20]: 53%
- viability, T/C [21]: 47.9%
- viability, T/C [22]: 51.6%
- viability, T/C [23]: 48.6%
- viability, T/C [24]: 45.3%
- viability, T/C [25]: 16.1%
- viability, T/C [26]: 21%
- viability, T/C [27]: 17%
- viability, T/C [28]: 17.3%
- viability, T/C [29]: 12.8%
- viability, T/C [30]: 9.97%
- viability, T/C [31]: 0.21%
- viability, T/C [32]: 5.23%
- viability, T/C [33]: 6.24%
- viability, T/C [34]: 0.26%
- viability, T/C [35]: 0.33%
- viability, T/C [36]: 0.25%

SMILES: CCCS(=O)(=O)Nc1ccc(F)c(C(=O)c2c[nH]c3ncc(-c4ccc(Cl)cc4)cc23)c1F + Cc1[nH]c2ccc(F)cc2c1-c1nc2c3cccnc3c3ncccc3c2[nH]1
- IC50 (second compound 0.0316 µM): 5.2 µM
- IC50 (second compound 0.1 µM): 4.08 µM
- IC50 (second compound 0.316 µM): 4.06 µM
- IC50 (second compound 1 µM): 3.25 µM
- IC50 (second compound 3.16 µM): < 0.0316 µM
- IC50 (second compound 10 µM): < 0.0316 µM
- viability, T/C [1]: 77.2%
- viability, T/C [2]: 87.3%
- viability, T/C [3]: 109%
- viability, T/C [4]: 115%
- viability, T/C [5]: 78.5%
- viability, T/C [6]: 12.7%
- viability, T/C [7]: 60.5%
- viability, T/C [8]: 105%
- viability, T/C [9]: 116%
- viability, T/C [10]: 70.9%
- viability, T/C [11]: 62.2%
- viability, T/C [12]: 15.5%
- viability, T/C [13]: 66.5%
- viability, T/C [14]: 73.7%
- viability, T/C [15]: 76.7%
- viability, T/C [16]: 70%
- viability, T/C [17]: 59.9%
- viability, T/C [18]: 14%
- viability, T/C [19]: 41.2%
- viability, T/C [20]: 70%
- viability, T/C [21]: 40.5%
- viability, T/C [22]: 55.5%
- viability, T/C [23]: 50.8%
- viability, T/C [24]: 11.7%
- viability, T/C [25]: 30.2%
- viability, T/C [26]: 29.2%
- viability, T/C [27]: 24.5%
- viability, T/C [28]: 19.6%
- viability, T/C [29]: 28.4%
- viability, T/C [30]: 7.37%
- viability, T/C [31]: 27.2%
- viability, T/C [32]: 23%
- viability, T/C [33]: 24.6%
- viability, T/C [34]: 27.1%
- viability, T/C [35]: 26.1%
- viability, T/C [36]: 8.52%

Reference: PubChem BioAssay AID2060494 (Molecular Pharmacology Branch, DTP, NCI, 2025)
